One test has as its system PM-LC. Description: Transwell assay of spontaneous migration of PM-LC. The format is cell-based, mouse. To be noted: for spontaneous migration of PM-LC: PM-LC from one-week LL2 TB mice, agent 10 min prior to plating, 1 hour. The source says: FIG. 7A-FIG. 7H. PM-LC spontaneous migration is dependent upon pannexin-1 hemichannels, extracellular ATP, and P2X and P2Y receptors. (FIG. 7A) Transwell assays evaluating the ability of PM-LC from one-week LL2 mice (left) (n=3) and RET mice (right) (n=5) to spontaneously migrate upon pannexin-1 hemichannel inhibition (panx). (FIG. 7B) Transwell assays evaluating the ability of neutrophils from control mice (n=8) and PM-LC from one-week LL2 mice (n=10) to spontaneously migrate upon apyrase treatment. (FIG. 7C-FIG. 7F) Transwell assays evaluating the ability of neutrophils from control mice (n=6) and PM-LC from one-week LL2 mice (n=7) to spontaneously migrate upon pan P2R inhibitor, P2XR, P2X1, P2Y, and A3R inhibition with suramin, NF449, MRS2179, AR-C118925XX, and MRS 1191, respectively. In addition, the ability of PM-LC from RET melanoma mice (n=3) to spontaneously migrate was also evaluated in the presence of P2Y inhibitors MRS2179 and AR-C118925XX. Individual values and mean and SD are shown. (FIG. 7G) Migration of BM neutrophils from control mice (n=3) and PMN-MDSC from 3-week LL2 mice (n=3) in response to stimulation with different concentrations of ADP. Mean and SD are shown. P values are calculated in two-sided Student's t-test. *−p<0.05; **−p<0.01; ***−p<0.001 (FIG. 7H) pMLC2 in BM neutrophils isolated from naive mice and one-week LL2 TB mice. Experiments were performed three times with similar results.
Unstimulated migration and chemotaxis was measured using a 3 μm pore transwell system (Neuro Probe Inc. or Sigma-Aldrich). Advanced RPMI with CXCL1 (BioLegend) or fMLP (Sigma-Aldrich) was placed in the bottom of the transwell, as indicated. 0.1×10^6 or 0.5×10^6 cells were incubated with pannexin inhibitor (^10Panx; Tocris), scrambled ^10Panx (Tocris), pan-P2XR inhibitor suramin (R&D Systems), P2X1 inhibitor NF 449 (Tocris), A3R inhibitor MRS 1191 (Santa Cruz), or apyrase (New England Biolabs) in Advanced RPMI for 10 min prior to being plated on top of the Neuro Probe system or Sigma-Aldrich system filter, respectively, and placed at 37° C., 5% CO2 for 1 hour. 10 μl media was taken from the bottom wells and counted by hemocytometer. The quantification of migrated neutrophils was done using the formula N=n×10^4×0.029 reflecting 29 µl media in the bottom well.

A further test has as its target P2Y1 receptor (Homo sapiens, UniProt P47900). To be noted: in vitro; cited from earlier work.
The conditions of test [1]: rats, compared to controls; cited from earlier work.
The conditions of test [2]: mice, compared to controls; cited from earlier work.
For test [3], the system named is P2 receptors such as P2X3, P2Y1, and P2Y2, P2X1. To be noted: cited from earlier work.
The subject of test [4] is BM neutrophils from control mice. The test is described as follows: Transwell assay of spontaneous migration of control neutrophils. It counts as cell-based, mouse. From the text: (§1) FIG. 7A-FIG. 7H. PM-LC spontaneous migration is dependent upon pannexin-1 hemichannels, extracellular ATP, and P2X and P2Y receptors. (FIG. 7A) Transwell assays evaluating the ability of PM-LC from one-week LL2 mice (left) (n=3) and RET mice (right) (n=5) to spontaneously migrate upon pannexin-1 hemichannel inhibition (panx). (FIG. 7B) Transwell assays evaluating the ability of neutrophils from control mice (n=8) and PM-LC from one-week LL2 mice (n=10) to spontaneously migrate upon apyrase treatment. […] In addition, the ability of PM-LC from RET melanoma mice (n=3) to spontaneously migrate was also evaluated in the presence of P2Y inhibitors MRS2179 and AR-C118925XX. […] P values are calculated in two-sided Student's t-test. *−p<0.05; **−p<0.01; ***−p<0.001 (FIG. 7H) pMLC2 in BM neutrophils isolated from naive mice and one-week LL2 TB mice. […]
(§2) Unstimulated migration and chemotaxis was measured using a 3 μm pore transwell system (Neuro Probe Inc. or Sigma-Aldrich). […] 10 μl media was taken from the bottom wells and counted by hemocytometer. The quantification of migrated neutrophils was done using the formula N=n×10^4×0.029 reflecting 29 µl media in the bottom well.

The test system of the next test is pMLC2. Description: pMLC2 Western blot in PM-LC. To be noted: PM-LC from one-week LL2 TB mice; treated 1 hour before Western blot. The format is cell-based, mouse. Here is the method: FIG. 15A-FIG. 15E. Expression of F-actin and genes associated with the glycolytic pathway. (FIG. 15A) Expression of indicated genes in neutrophils from control and RET melanoma mice measured in real-time quantitative PCR (n=3). Individual results for each mouse, mean and SD are shown. (FIG. 15B) F-actin was measured using flow cytometry before and after stimulation with CXCL1 or fMLP in BM neutrophils from indicated tumor models. Typical example of 4 experiments is shown. (FIG. 15C) F-actin in unstimulated cells evaluated by flow cytometry. Individual results for each mouse, mean and SD are shown. (FIG. 15D) F-actin in neutrophils and PMN-MDSC measured by flow cytometry (n=4). Individual results for each mouse, mean and SD are shown. Significant p values in two-sided Student's t-test are shown. (FIG. 15E) pMLC2 in neutrophils from control tumor-free and one-week LLC TB mice. Neutrophils were treated with vehicle alone or with P2Y2 inhibitor (ARC) for 1 hour before Western blot analysis. Two experiments with similar results were performed.
On the technique in general: A western blot detects proteins with antibodies after separation by electrophoresis.

Test [5] has as its system PMN-MDSC from 3-week LL2 mice. The test is described as follows: Transwell assay of migration of PMN-MDSC. To be noted: different concentrations of ADP. The format is cell-based, mouse.
From the text: as §1, §2

Like-named read-outs stand apart in the source and are kept apart here.

P2Y1 receptor, sequence (P47900 whole entry): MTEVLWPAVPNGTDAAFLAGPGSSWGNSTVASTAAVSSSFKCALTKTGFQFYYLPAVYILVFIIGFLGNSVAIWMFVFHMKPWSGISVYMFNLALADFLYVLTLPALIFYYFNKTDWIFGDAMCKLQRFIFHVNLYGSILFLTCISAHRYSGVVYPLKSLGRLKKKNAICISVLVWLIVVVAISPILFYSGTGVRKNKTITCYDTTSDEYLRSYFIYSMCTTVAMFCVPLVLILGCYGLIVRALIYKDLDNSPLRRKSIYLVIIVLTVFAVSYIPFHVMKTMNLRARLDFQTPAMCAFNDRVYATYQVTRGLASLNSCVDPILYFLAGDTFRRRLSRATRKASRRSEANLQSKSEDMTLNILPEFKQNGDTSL

On to `CNc1ncnc2c1ncn2[C@H]1C[C@H](OP(=O)(O)O)[C@@H](COP(=O)(O)O)O1.N` [MRS2179, 3′-adenylic acid, 2′-deoxy-N-methyl-5′-(dihydrogen phosphate), ammonium salt], for which, in the test on PM-LC, the “spontaneous migration of PM-LC” value is listed as “completely abrogated the increased spontaneous migration”. For the same compound, the “pA2, inhibition of ADP-induced platelet shape change and aggregation” value on P2Y1 receptor is 6.55. Also, the bleeding time result in test [1] and in test [2] was “prolongs bleeding time” each time.
Regarding `O=C(Nc1cc(C(=O)Nc2ccc(S(=O)(=O)[O-])cc2S(=O)(=O)[O-])cc(C(=O)Nc2ccc(S(=O)(=O)[O-])cc2S(=O)(=O)[O-])c1)Nc1cc(C(=O)Nc2ccc(S(=O)(=O)[O-])cc2S(=O)(=O)[O-])cc(C(=O)Nc2ccc(S(=O)(=O)[O-])cc2S(=O)(=O)[O-])c1.[Na+].[Na+].[Na+].[Na+].[Na+].[Na+].[Na+].[Na+]` [NF449, 4,4′,4″,4″′-[Carbonylbis(imino-5,1,3-benzenetriyl-bis(carbonylimino))]tetrakis-1,3-benzen edisulfonic acid octasodium salt], the “inhibition of the ability of PM-LCs to spontaneously migrate” value with PM-LC (PM-LC from one-week LL2 mice) turned out to be 50%. In addition, the “selectivity among P2 receptors” value in test [3] is on record as “highest selectivity towards P2X1”.
For `Cc1ccc(C(=O)Nc2ccc(S(=O)(=O)O)c3cc(S(=O)(=O)O)cc(S(=O)(=O)O)c23)cc1NC(=O)c1cccc(NC(=O)Nc2cccc(C(=O)Nc3cc(C(=O)Nc4ccc(S(=O)(=O)O)c5cc(S(=O)(=O)O)cc(S(=O)(=O)O)c45)ccc3C)c2)c1` [suramin], the “spontaneous migration of PM-LC” value with PM-LC is given as “completely abrogated”.
Consider apyrase, for which the “spontaneous migration of PM-LC” value in the test with PM-LC is on record as “completely abrogated”. For the same compound, the “spontaneous migration of control neutrophils” value in test [4] (neutrophils from control mice, Transwell) is reported as “completely abrogated”.
For `Cc1ccc2c(c1)C=Cc1cc(C)ccc1C2c1cn(Cc2ccc(C(=O)Nc3nn[nH]n3)o2)c(=O)[nH]c1=S` [AR-C118925XX, 5-[[5-(2,8-Dimethyl-5H-dibenzo[a,d]cyclohepten-5-yl)-3,4-dihydro-2-oxo-4-thioxo-1(2H)-pyrimidinyl]methyl]-N-2H-tetrazol-5-yl-2-furancarboxamide], in the test with PM-LC, the “spontaneous migration of PM-LC” value is listed as “completely abrogated the increased spontaneous migration”. The “up-regulation of pMLC2 in PM-LC” value in the test on pMLC2 is recorded as “abrogated”.
Regarding `Nc1ncnc2c1ncn2[C@@H]1O[C@H](COP(=O)(O)OP(=O)(O)O)[C@@H](O)[C@H]1O` [ADP], in test [4] (BM neutrophils from control mice, different concentrations of ADP), the “migration of control neutrophils on stimulation” value was “significantly increased migration”. The “migration of PMN-MDSC on stimulation” value in test [5] is “significantly increased migration”.
With `CCOC(=O)C1=C(C)NC(c2ccccc2)=C(C(=O)OCc2ccccc2)C1C#Cc1ccccc1` (centres unmarked) [MRS 1191], the “spontaneous migration of PM-LC” value in the test with PM-LC is “did not affect”.

Values taken from US20210346326A1, “COMPOSITIONS AND METHODS FOR ALTERING NEUTROPHIL MIGRATION AND METASTASIS” (The Wistar Institute of Anatomy and Biology, priority 2018, published 2021).
